The values that follow come from patent US9840712B2, “CD133 aptamers for detection of cancer stem cells” (DEAKIN UNIVERSITY, priority 2012, dated 2017).

What is called Kd is the equilibrium constant for the complex coming apart.

For series [1], the system named is colon cancer cells (HT29). To be noted: 1 μM; for Tumoursphere formation after treatment: 3 days post-treatment.
In series [2] the target is T1, CD133 expressed on HT-29 cells (Homo sapiens, UniProt O43490).
T1 construct: determined using CD133 positive (HT-29 and Hep3B) and CD133 negative cell lines (T98G and HEK293T); host or cells: HT-29
T1 sequence (O43490 20-865): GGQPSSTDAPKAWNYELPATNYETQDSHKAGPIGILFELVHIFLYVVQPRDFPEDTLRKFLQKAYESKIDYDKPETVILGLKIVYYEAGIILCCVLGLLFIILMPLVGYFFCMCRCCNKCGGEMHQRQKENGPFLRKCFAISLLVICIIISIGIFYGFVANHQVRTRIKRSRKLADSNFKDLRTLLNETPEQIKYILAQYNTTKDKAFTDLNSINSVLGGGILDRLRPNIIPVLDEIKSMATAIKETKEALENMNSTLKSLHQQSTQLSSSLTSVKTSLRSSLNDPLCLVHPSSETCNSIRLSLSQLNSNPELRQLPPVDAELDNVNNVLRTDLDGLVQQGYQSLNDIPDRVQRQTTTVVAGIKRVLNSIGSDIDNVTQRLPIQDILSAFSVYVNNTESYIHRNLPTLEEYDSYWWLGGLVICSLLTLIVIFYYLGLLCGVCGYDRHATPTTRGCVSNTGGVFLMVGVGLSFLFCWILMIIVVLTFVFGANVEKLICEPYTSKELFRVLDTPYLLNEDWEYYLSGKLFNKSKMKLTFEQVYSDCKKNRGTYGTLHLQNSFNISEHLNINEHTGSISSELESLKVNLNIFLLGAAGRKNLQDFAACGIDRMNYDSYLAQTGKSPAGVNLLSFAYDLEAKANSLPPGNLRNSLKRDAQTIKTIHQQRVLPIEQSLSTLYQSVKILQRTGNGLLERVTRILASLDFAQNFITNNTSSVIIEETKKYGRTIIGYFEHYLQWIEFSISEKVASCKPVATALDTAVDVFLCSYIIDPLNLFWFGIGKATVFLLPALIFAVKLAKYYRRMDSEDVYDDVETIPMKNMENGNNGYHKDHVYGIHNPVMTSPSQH
As to the kind of experiment: Aptamer dissociation constant by flow cytometry, HT-29 cells. The settings on record: HT-29 cells (CD133-positive); binding at 37° C. for 30 min. On the procedure: (§1) Cells were harvested at 80% confluence with trypsin digestion and resuspended in washing buffer (DPBS with 2.5 mM MgCl2) and enumerated. Following centrifugation (1000×g for 5 min), the cell pellet was resuspended in binding buffer (DPBS supplemented with 5 mM MgCl2, 0.1 mg/ml tRNA, 0.1 mg/ml salmon sperm DNA) and diluted to 1×10^6/mL.
(§2) The dissociation constant (Kd) of successful 2′-fluoropyrimidine RNA aptamer species to native CD133 expressed on the cell surface was determined using flow cytometry. […] The mean fluorescence intensity (MFI) of the unselected library was subtracted from that of the aptamer-target cell to generate the MFI of specific binding. The Kd for each aptamer was determined by Scatchard analysis according to the equation: [Bound aptamer]/[aptamer]=−(1/Kd)×[bound aptamer]+([T]tot/Kd) where [T]tot represents the total target concentration. […]
(§3) To generate the truncated aptamers, the sense and antisense DNA oligonucleotides of desired sequences were synthesised. […] The binding affinities of these two aptamers and a negative control aptamer was determined using CD133 positive (HT-29 and Hep3B) and CD133 negative cell lines (T98G and HEK293T). […]
In general terms: In flow cytometry, cells or beads pass a laser one at a time.

Series [3] concerns the target T2, CD133 expressed on Hep3B cells (Homo sapiens, UniProt O43490).
T2 construct: determined using CD133 positive (HT-29 and Hep3B) and CD133 negative cell lines (T98G and HEK293T); host or cells: Hep3B
T2 sequence (O43490 20-865): T1 sequence (O43490 20-865)
As to the kind of experiment: Aptamer dissociation constant by flow cytometry, Hep3B cells. The settings on record: Hep3B cells (CD133-positive); binding at 37° C. for 30 min. How it is done: as §1, §2, §3

Series [4] has as its system CD133-negative HEK293T cells. As to the kind of experiment: Aptamer dissociation constant by flow cytometry, HEK293T cells (specificity). Further details: species or system human. To be noted: binding at 37° C. for 30 min. On the procedure: as §1, §2, §3
The subject of series [5] is CD133-negative T98G cells. As to the kind of experiment: Aptamer dissociation constant by flow cytometry, T98G cells (specificity). Also noted: species or system human. The settings on record: binding at 37° C. for 30 min. On the procedure:
as §1, §2, §3

Read-outs that look alike come from different tables or passages of the source. In the oligonucleotide strings, read from the 5' end, every base follows the letter of its sugar. An asterisk marks phosphorothioate; unmarked linkages are phosphodiester. Other units and linkages are bracketed, terminal groups are in braces. A string of capitals states the bases alone. r = 2'-OH (RNA); f = 2'-fluoro

On to `COc1cccc2c1C(=O)c1c(O)c3c(c(O)c1C2=O)C[C@@](O)(C(=O)CO)C[C@@H]3O[C@H]1C[C@H](N)[C@H](O)[C@H](C)O1` [Doxorubicin, doxorubicin], for which the “Tumoursphere formation after treatment” value in series [1] (10 cells/well), in series [1] (50 cells/well) and in series [1] (100 cells/well) was 5/5 throughout. Moreover, the “inhibition of tumoursphere formation (in words)” value in series [1] (100 cells/well) is “no effect”.

Regarding “CD133-1-2-2: 15 mer 2′-F-pyrimidine RNA aptamer, 5′-CC CUC CUA CAU AGG G-3′ (SEQ ID NO:1) (fCfCfCfUfCfCfUrAfCrAfUrArGrGrG; further chemistry not given here)”, the Kd in series [2] worked out at 82 nM; in series [3], 32 nM; in series [4], 120 µM; in series [5], 275 µM.

In the case of “CD133-2-1: 19 mer 2′-F-pyrimidine RNA aptamer, 5′-CAGAACGUAUACUAUUCUG-3′ (SEQ ID NO:6) (fCrArGrArAfCrGfUrAfUrAfCfUrAfUfUfCfUrG; further chemistry not given here)”, the Kd in series [2] came to 145 nM; in series [3], 52 nM; in series [4], 1740 µM; in series [5], 4.76 µM.
